Measurements as given in paper PMC11876671, “Investigating blood–brain barrier penetration and neurotoxicity of natural products for central nervous system drug development” (Scientific Reports, 2025).
Where a name gives a salt, the structure may show the parent alone.

Assay: in vitro
Conditions: PAMPA, PAMPA-BBB Pe

Question: For `CC[C@H](C)C(=O)O[C@H]1CCC=C2C=C[C@H](C)[C@H](CC[C@@H]3C[C@@H](O)CC(=O)O3)[C@H]21` [MEVASTATIN], which Papp is on record?
Answer: 14 ×10⁻⁶ cm/s

Same assay, conditions: PAMPA, PAMPA-BBB Pe(10^-6 cm/sec)

Question: With `C[C@H]1C[C@H]2[C@@H]3CCC4=CC(=O)C=C[C@]4(C)[C@H]3C(=O)C[C@]2(C)[C@@]1(O)C(=O)CO` [MEPREDNISONE] as the molecule, how does the Papp read?
Answer: 3.7 ×10⁻⁶ cm/s

Question: With `C/C(=C\C(=O)OCCCCCCCCC(=O)O)C[C@@H]1OC[C@H](C[C@@H]2O[C@H]2[C@@H](C)[C@H](C)O)[C@@H](O)[C@H]1O` [MUPIROCIN] as the molecule, how does the Papp read?
Answer: < 1 ×10⁻⁶ cm/s

Same assay, conditions: PAMPA, PAMPA-BBB Pe(10^-6 cm/sec), Table S3: compounds exhibiting low PAMPA-BBB permeability

Question: With `CC(C)=CCC/C(C)=C/C=C/C(C)=C/C=C/C(C)=C/C=C/C=C(C)/C=C/C=C(C)/C=C/C=C(\C)CCC=C(C)C` [LYCOPENE] as the molecule, how does the Papp read?
Answer: < 1 ×10⁻⁶ cm/s

Question: Which Papp does the source give for `O=C(O)c1cc(N(Cc2ccccc2O)Cc2ccccc2O)ccc1O` [L[…]] here?
Answer: 5.9 ×10⁻⁶ cm/s

Question: For `COc1cc(-c2[o+]c3cc(O)cc(O)c3cc2O)cc(OC)c1O` [MALVIDIN], which Papp is on record?
Answer: 1 ×10⁻⁶ cm/s

Question: With `O=c1c2cc(O)c(O)cc2oc2cc(O)c([C@@H]3O[C@H](CO)[C@@H](O)[C@H](O)[C@H]3O)c(O)c12` [MANGIFERIN] as the molecule, how does the Papp read?
Answer: < 1 ×10⁻⁶ cm/s

Question: Which Papp does the source give for `CC1=C(CC/C(C)=C/CCC2=CC[C@H](C3=CC(=O)O[C@H]3O)O[C@H]2O)C(C)(C)CCC1` [MANOALIDE] here?
Answer: < 1 ×10⁻⁶ cm/s

Question: With `O=C(/C=C/c1ccc(O)c(O)c1)c1ccc(O[C@@H]2O[C@H](CO)[C@@H](O)[C@H](O)[C@H]2O)c(O)c1O` [MAREIN¦] as the molecule, how does the Papp read?
Answer: 1.6 ×10⁻⁶ cm/s

Question: For `COc1ccc2[nH]cc(CCNC(C)=O)c2c1` [MELATONIN], which Papp is on record?
Answer: 2.8 ×10⁻⁶ cm/s

Question: Which Papp does the source give for `CNCC(O)c1ccc(O)c(OC)c1` (stereo not drawn) [METANEPHRINE HYDROCHLORIDE] here?
Answer: < 1 ×10⁻⁶ cm/s

Question: For `CSC[C@H]1O[C@@H](n2cnc3c(N)ncnc32)[C@H](O)[C@@H]1O` [METHYLTHIOADENOSINE], which Papp is on record?
Answer: < 1 ×10⁻⁶ cm/s

Question: For `COc1cc(OC)c(C(C)=O)c(O)c1C` [METHYLXANTHOXYLINE], which Papp is on record?
Answer: < 1 ×10⁻⁶ cm/s

Question: Which Papp does the source give for `CC=C1C[N+]2(C)CC[C@@]34C(=C(C=O)[C@H]1C[C@@H]32)Nc1ccccc14` (stereo partly drawn) [METVINE] here?
Answer: < 1 ×10⁻⁶ cm/s

Question: Which Papp does the source give for `CC[C@H]1O[C@]2(CC[C@@H]1C)C[C@@H]1C[C@@H](CC=C(C)C[C@@H](C)C=CC=C3CO[C@@H]4[C@H](O)C(C)=C[C@@H](C(=O)O1)[C@]34O)O2` [MILBEMYCIN A4] here?
Answer: 9.9 ×10⁻⁶ cm/s

Question: Which Papp does the source give for `O=c1c(O)c(-c2ccc(O)cc2O)oc2cc(O)cc(O)c12` [MORIN] here?
Answer: 1.5 ×10⁻⁶ cm/s

Question: With `O=c1c(O)c(-c2cc(O)c(O)c(O)c2)oc2cc(O)cc(O)c12` [MYRICETIN] as the molecule, how does the Papp read?
Answer: < 1 ×10⁻⁶ cm/s

Question: With `CNc1ccc(C(=O)CC(O)CCC(C)C2OC(=O)CC(O)CC(=O)CC(O)CC(O)CC(O)CC(O)CC3(O)CC(O)C(C(=O)OC)C(CC(O[C@@H]4O[C@H](C)[C@@H](O)[C@H](N)[C@@H]4O)/C=C/C=C/C=C/C=C/C=C/C=C/C=C/C2C)O3)cc1` (stereo partly drawn) [M[…]] as the molecule, how does the Papp read?
Answer: < 1 ×10⁻⁶ cm/s

Question: With `COc1cc2c(c(OC)c1OC)-c1ccc(O)c(=O)cc1[C@@H](N)CC2` [N-DEACETYLCOLCHICEINE] as the molecule, how does the Papp read?
Answer: 8.2 ×10⁻⁶ cm/s

Same assay, conditions: PAMPA, PAMPA-BBB Pe, Table S2: compounds exhibiting moderate to high PAMPA-BBB permeability

Question: With `CN1C[C@H](CO)C=C2c3cccc4[nH]cc(c34)C[C@H]21` [LYSERGOL] as the molecule, how does the Papp read?
Answer: 51 ×10⁻⁶ cm/s

Question: For `CC(C)c1cccc(O)c1` [M-ISOPROPYLPHENOL], which Papp is on record?
Answer: 149 ×10⁻⁶ cm/s

Question: For `CCCC[C@@H](C)/C=C(C)/C=C(\C)C(=O)NC1=C[C@@](O)(/C=C/C=C/C=C/C(=O)NC2=C(O)CCC2=O)[C@@H]2O[C@@H]2C1=O` [MANUMYCIN A], which Papp is on record?
Answer: 64 ×10⁻⁶ cm/s

Question: With `CC(=O)[C@H]1CC[C@H]2[C@@H]3C[C@H](C)C4=CC(=O)CC[C@]4(C)[C@H]3[C@@H](O)C[C@]12C` [MEDRYSONE] as the molecule, how does the Papp read?
Answer: 72 ×10⁻⁶ cm/s

Question: With `COC(=O)c1ccc(OC)cc1` [METHYL ANISATE] as the molecule, how does the Papp read?
Answer: 103 ×10⁻⁶ cm/s

Question: For `COC(=O)C=Cc1ccccc1` [METHYL CINNAMATE], which Papp is on record?
Answer: 98 ×10⁻⁶ cm/s

Question: Which Papp does the source give for `COC(=O)c1ccccc1OC` [METHYL O-ANISATE] here?
Answer: 120 ×10⁻⁶ cm/s

Question: With `CC(=O)c1ccc[nH]1` [METHYL PYRROL-2-YL KETONE] as the molecule, how does the Papp read?
Answer: 28 ×10⁻⁶ cm/s

Question: Which Papp does the source give for `COC1=CC(=O)O[C@@H](/C=C/c2ccc3c(c2)OCO3)C1` [METHYSTICIN] here?
Answer: 104 ×10⁻⁶ cm/s

Question: For `COC(=O)C1=CO[C@@H](C)[C@@H]2CN3CC[C@@]4(C(=O)Nc5ccccc54)[C@@H]3CC12` (stereo partly drawn) [MITRAPHYLLINE], which Papp is on record?
Answer: 117 ×10⁻⁶ cm/s

Question: Which Papp does the source give for `COC(=O)c1c(C)cc(O)cc1O` [Methyl 2,4-dihydroxy-6-methylbenzoate] here?
Answer: 63 ×10⁻⁶ cm/s
